Assay results published in ChEMBL document CHEMBL5226390, “Synthesis and Structure-Activity Analysis of Icaritin Derivatives as Potential Tumor Growth Inhibitors of Hepatocellular Carcinoma Cells” (J Nat Prod, 2023).

Assays:
SMMC-7721 = test: Antiproliferative activity against human SMMC-7721 cells assessed as reduction in cell viability incubated for 48 hrs by MTT assay; assay type: functional, cell-based
[1] = Solubility of the compound in water incubated for 24 hrs under stirring conditions by HPLC analysis; assay type: physicochemical
Hep 3B2 = test: Antiproliferative activity against human Hep3B cells assessed as reduction in cell viability incubated for 48 hrs by MTT assay; assay type: functional, cell-based
HepG2 = test: Antiproliferative activity against human HepG2 cells assessed as reduction in cell viability incubated for 48 hrs by MTT assay; assay type: functional, cell-based; details: HepG2, 48 h
[2] = Homo sapiens, SMMC-7721, 48 h, read-out: IC50

SMILES: COc1ccc(-c2oc3c(CC=C(C)C)c(O)cc(O)c3c(=O)c2O)cc1 [ICARITIN]
- IC50 (SMMC-7721; [2]): > 10 µM
- solubility at 24 h [1]: < 10 µg/mL
- IC50 (Hep 3B2): 0.9 µM
- IC50 (HepG2): > 10 µM

SMILES: COc1ccc(-c2oc3c(CC=C(C)C)c(OCCOCCOCCOCCN4CCCC4)cc(O)c3c(=O)c2O[C@H]2O[C@H](C)[C@@H](O)[C@H](O)[C@@H]2O)cc1
- IC50 (SMMC-7721; [2]): > 10 µM
- IC50 (Hep 3B2): 9.8 µM
- IC50 (HepG2): > 10 µM

SMILES: CNC(=O)c1cc(Oc2ccc(NC(=O)Nc3ccc(Cl)c(C(F)(F)F)c3)cc2)ccn1 [SORAFENIB]
- IC50 (SMMC-7721; [2]): 8.8 µM
- IC50 (Hep 3B2): 7.7 µM
- IC50 (HepG2): 5.5 µM

SMILES: CCN(CC)C[C@@H](O)COc1cc(O)c2c(=O)c(O[C@H]3O[C@H](C)[C@@H](O)[C@H](O)[C@@H]3O)c(-c3ccc(OC)cc3)oc2c1CC=C(C)C
- IC50 (SMMC-7721; [2]): > 10 µM
- IC50 (Hep 3B2): 8.3 µM
- IC50 (HepG2): > 10 µM

SMILES: COc1ccc(-c2oc3c(CC=C(C)C)c(OCCCN(C)C)cc(O)c3c(=O)c2O[C@H]2O[C@H](C)[C@@H](O)[C@H](O)[C@@H]2O)cc1
- IC50 (SMMC-7721; smmc-7721): Not Active
- IC50 (Hep 3B2): > 10 µM
- IC50 (HepG2): > 10 µM

SMILES: CCN(CC)CCOCCOCCOCCOc1cc(O)c2c(=O)c(O[C@H]3O[C@H](C)[C@@H](O)[C@H](O)[C@@H]3O)c(-c3ccc(OC)cc3)oc2c1CC=C(C)C
- IC50 (SMMC-7721; [2]): > 10 µM
- IC50 (Hep 3B2): 7.2 µM
- IC50 (HepG2): 7.1 µM

SMILES: COc1ccc(-c2oc3c(CC=C(C)C)c(OCCCN4CCCC4)cc(O)c3c(=O)c2O[C@H]2O[C@H](C)[C@@H](O)[C@H](O)[C@@H]2O)cc1
- IC50 (SMMC-7721; [2]): 6.1 µM
- IC50 (Hep 3B2): 7.6 µM
- IC50 (HepG2): 6.3 µM

SMILES: COc1ccc(-c2oc3c(CC=C(C)C)c(OCCN(C)C)cc(O)c3c(=O)c2O[C@H]2O[C@H](C)[C@@H](O)[C@H](O)[C@@H]2O)cc1
- IC50 (SMMC-7721; smmc-7721): Not Active
- IC50 (Hep 3B2): > 10 µM
- IC50 (HepG2): 9.2 µM

SMILES: CCCCN(CCCC)CCOc1cc(O)c2c(=O)c(O[C@H]3O[C@H](C)[C@@H](O)[C@H](O)[C@@H]3O)c(-c3ccc(OC)cc3)oc2c1CC=C(C)C
- IC50 (SMMC-7721; smmc-7721): Not Active
- IC50 (Hep 3B2): > 10 µM
- IC50 (HepG2): > 10 µM

SMILES: COc1ccc(-c2oc3c(CC=C(C)C)c(OCCN4CCNCC4)cc(O)c3c(=O)c2O[C@H]2O[C@H](C)[C@@H](O)[C@H](O)[C@@H]2O)cc1
- IC50 (SMMC-7721; smmc-7721): Not Active
- IC50 (Hep 3B2): > 10 µM
- IC50 (HepG2): > 10 µM

SMILES: CCCCN(CCCC)CCCCOc1cc(O)c2c(=O)c(O[C@H]3O[C@H](C)[C@@H](O)[C@H](O)[C@@H]3O)c(-c3ccc(OC)cc3)oc2c1CC=C(C)C
- IC50 (SMMC-7721; smmc-7721): Not Active
- IC50 (Hep 3B2): > 10 µM
- IC50 (HepG2): 9.8 µM

SMILES: COc1ccc(-c2oc3c(CC=C(C)C)c(OCCOCCOCCN4CCCC4)cc(O)c3c(=O)c2O[C@H]2O[C@H](C)[C@@H](O)[C@H](O)[C@@H]2O)cc1
- IC50 (SMMC-7721; [2]): > 10 µM
- IC50 (Hep 3B2): > 10 µM
- IC50 (HepG2): > 10 µM

SMILES: COc1ccc(-c2oc3c(CC=C(C)C)c(OCCN4CCC(N5CCCCC5)CC4)cc(O)c3c(=O)c2O[C@H]2O[C@H](C)[C@@H](O)[C@H](O)[C@@H]2O)cc1
- IC50 (SMMC-7721; smmc-7721): Not Active
- IC50 (Hep 3B2): > 10 µM
- IC50 (HepG2): > 10 µM

SMILES: COc1ccc(-c2oc3c(CC=C(C)C)c(OCCCCN4CCOCC4)cc(O)c3c(=O)c2O[C@H]2O[C@H](C)[C@@H](O)[C@H](O)[C@@H]2O)cc1
- IC50 (SMMC-7721; smmc-7721): Not Active
- IC50 (Hep 3B2): > 10 µM
- IC50 (HepG2): > 10 µM

SMILES: COc1ccc(-c2oc3c(CC=C(C)C)c(OC[C@H](O)CN4CCCC4)cc(O)c3c(=O)c2O[C@H]2O[C@H](C)[C@@H](O)[C@H](O)[C@@H]2O)cc1
- IC50 (SMMC-7721; [2]): > 10 µM
- IC50 (Hep 3B2): > 10 µM
- IC50 (HepG2): > 10 µM

SMILES: CCN(CC)CCCOc1cc(O)c2c(=O)c(O[C@H]3O[C@H](C)[C@@H](O)[C@H](O)[C@@H]3O)c(-c3ccc(OC)cc3)oc2c1CC=C(C)C
- IC50 (SMMC-7721; [2]): > 10 µM
- IC50 (Hep 3B2): > 10 µM
- IC50 (HepG2): 5.5 µM

SMILES: COc1ccc(-c2oc3c(CC=C(C)C)c(OCCCCN4CCNCC4)cc(O)c3c(=O)c2O[C@H]2O[C@H](C)[C@@H](O)[C@H](O)[C@@H]2O)cc1
- IC50 (SMMC-7721; smmc-7721): Not Active
- IC50 (Hep 3B2): 8 µM
- IC50 (HepG2): 7.4 µM

SMILES: COc1ccc(-c2oc3c(CC=C(C)C)c(OCCOCCN4CCCC4)cc(O)c3c(=O)c2O[C@H]2O[C@H](C)[C@@H](O)[C@H](O)[C@@H]2O)cc1
- IC50 (SMMC-7721; [2]): 8.6 µM
- IC50 (Hep 3B2): 6.4 µM
- IC50 (HepG2): 8.6 µM

SMILES: CCN(CC)CCOc1cc(O)c2c(=O)c(O[C@H]3O[C@H](C)[C@@H](O)[C@H](O)[C@@H]3O)c(-c3ccc(OC)cc3)oc2c1CC=C(C)C
- IC50 (SMMC-7721; smmc-7721): Not Active
- IC50 (Hep 3B2): > 10 µM
- IC50 (HepG2): > 10 µM

SMILES: COc1ccc(-c2oc3c(CC=C(C)C)c(OCCN4CCC(O)CC4)cc(O)c3c(=O)c2O[C@H]2O[C@H](C)[C@@H](O)[C@H](O)[C@@H]2O)cc1
- IC50 (SMMC-7721; smmc-7721): Not Active
- IC50 (Hep 3B2): > 10 µM
- IC50 (HepG2): > 10 µM

SMILES: CCCCN(CCCC)CCCOc1cc(O)c2c(=O)c(O[C@H]3O[C@H](C)[C@@H](O)[C@H](O)[C@@H]3O)c(-c3ccc(OC)cc3)oc2c1CC=C(C)C
- IC50 (SMMC-7721; smmc-7721): Not Active
- IC50 (Hep 3B2): 9.3 µM
- IC50 (HepG2): > 10 µM

SMILES: CCN(CC)CCOCCOCCOc1cc(O)c2c(=O)c(O[C@H]3O[C@H](C)[C@@H](O)[C@H](O)[C@@H]3O)c(-c3ccc(OC)cc3)oc2c1CC=C(C)C
- IC50 (SMMC-7721; [2]): > 10 µM
- IC50 (Hep 3B2): > 10 µM
- IC50 (HepG2): > 10 µM

SMILES: COc1ccc(-c2oc3c(CC=C(C)C)c(OCCCCN4CCC(C)CC4)cc(O)c3c(=O)c2O[C@H]2O[C@H](C)[C@@H](O)[C@H](O)[C@@H]2O)cc1
- IC50 (SMMC-7721; smmc-7721): Not Active
- IC50 (Hep 3B2): > 10 µM
- IC50 (HepG2): > 10 µM

SMILES: COc1ccc(-c2oc3c(CC=C(C)C)c(OCCCCCC(=O)NO)cc(O)c3c(=O)c2O[C@H]2O[C@H](C)[C@@H](O)[C@H](O)[C@@H]2O)cc1
- IC50 (SMMC-7721; [2]): > 10 µM
- IC50 (Hep 3B2): > 10 µM
- IC50 (HepG2): > 10 µM

SMILES: COc1ccc(-c2oc3c(CC=C(C)C)c(OCCCCN4CCC(O)CC4)cc(O)c3c(=O)c2O[C@H]2O[C@H](C)[C@@H](O)[C@H](O)[C@@H]2O)cc1
- IC50 (SMMC-7721; [2]): 7.1 µM
- IC50 (Hep 3B2): 5.7 µM
- IC50 (HepG2): 6.5 µM

SMILES: COc1ccc(-c2oc3c(CC=C(C)C)c(OCCN4CCOCC4)cc(O)c3c(=O)c2O[C@H]2O[C@H](C)[C@@H](O)[C@H](O)[C@@H]2O)cc1
- IC50 (SMMC-7721; smmc-7721): Not Active
- IC50 (Hep 3B2): 6.1 µM
- IC50 (HepG2): > 10 µM

SMILES: COc1ccc(-c2oc3c(CC=C(C)C)c(OCCCN4CCC(O)CC4)cc(O)c3c(=O)c2O[C@H]2O[C@H](C)[C@@H](O)[C@H](O)[C@@H]2O)cc1
- IC50 (SMMC-7721; smmc-7721): Not Active
- IC50 (Hep 3B2): 8.6 µM
- IC50 (HepG2): > 10 µM

SMILES: CCN(CC)CCCCCCOc1cc(O)c2c(=O)c(O[C@H]3O[C@H](C)[C@@H](O)[C@H](O)[C@@H]3O)c(-c3ccc(OC)cc3)oc2c1CC=C(C)C
- IC50 (SMMC-7721; [2]): 6.5 µM
- IC50 (Hep 3B2): 8.9 µM
- IC50 (HepG2): 2.5 µM

SMILES: COc1ccc(-c2oc3c(CC=C(C)C)c(OCCCN4CCC(N5CCCCC5)CC4)cc(O)c3c(=O)c2O[C@H]2O[C@H](C)[C@@H](O)[C@H](O)[C@@H]2O)cc1
- IC50 (SMMC-7721; [2]): > 10 µM
- IC50 (Hep 3B2): 5.6 µM
- IC50 (HepG2): 6.6 µM
